One experiment has as its system Hsp70. Description: Western blot of Hsp70 in PN cells. Format: cell-based, mouse. To be noted: VX-809 10 μM 16 h. On the procedure:
(§1) FIG. 8A, FIG. 8B, FIG. 8C, FIG. 8D, FIG. 8E, FIG. 8F, FIG. 8G, and FIG. 8H show chaperone expression is altered in PH and PN cells by VX-809. (FIG. 8A) Western blot showing expression of HSP27, 70 and HSP 90 in VX-809 treated or control PN cells. […] (FIG. 8E). Western blot of HSP27, 70 and 90 in PH vs. PN cells. […] Whereas, Hsp70 is higher in PH vs. PN cells. Data were analyzed by non-parametric t test. Experiment was repeated 4-5 times. Cells were grown in 10-cm culture dishes at permissive conditions (33° C.) with γ-interferon in culture media. Cells were then transferred to non-permissive conditions at 37° C., γ-interferon free culture media and evaluated at full confluence. At day four, cells were treated with VX-809 (10 μM) for 16 h and harvested on fifth day for assay. *P<0.05., **P<0.01, ***P<0.001, ****P<0.0001; To facilitate their growth in the kidney, cysts have developed an altered network of proteins that most likely serves to protect them from stress (34). Next, it was determined whether VX-809 would alter the levels of Hsps in pkd−/− mice and in PN cells. […] Hsp 27, 70 and 90 are all elevated in cystic kidneys compared to normal controls. […] There is no change in Hsp 40. […] Both sets of data are consistent with an alteration in the heat shock response to cyst growth.
In general terms: Immunoblotting shows a protein as a band on a membrane.

For experiment [1], the system named is model ADPKD cell line (PN=pkd−/− knockout). Kind of experiment: In vitro cystogenesis (3D Matrigel culture), cyst size. Further details: cyst size, drug treatment regime incl. established cysts: dose or concentration left out as unconfirmed. Format: cell-based, mouse.
The test system of experiment [2] is Hsp27. Description: Cycloheximide chase, disappearance of Hsp27 in PN cells. Format: cell-based, mouse. To be noted: VX-809 10 μM with cycloheximide 25 μM. On the procedure: FIG. 9A, FIG. 9B, FIG. 9C, FIG. 9D, FIG. 9E, FIG. 9F, FIG. 9G, and FIG. 9H show Hsp27, HSp70, and Hsp90 expression in PN cells treated with VX-809 and/or cycloheximide. (A) Pkd1 null (PN) cells were treated with VX-809 (10 μM) and/or with cycloheximide (25 μM) for indicated time points before being harvested for the assay. (FIG. 9A) Western blot showing expression of Hsp27, Hsp70, and Hsp90 in VX-809-(16 h), cycloheximide-treated, or control PN cells. ((FIG. 9B. (FIG. 9C, and (FIG. 9D) Columns represent averages±standard errors of Hsp27, Hsp70, and Hsp90 expression in cells treated with VX-809 and/or cycloheximide. ((FIG. 9E) Western blot showing expression of Hsp27, Hsp70, and Hsp90 in PN cells treated with VX-809+cycloheximide or control PN cells. ((FIG. 9F, (FIG. 9G, and (FIG. 9H) Columns represent averages±standard errors of Hsp27, Hsp70, and Hsp90 expression in cells treated only with cycloheximide or in control PN cells. Data were analyzed by non-parametric t-test. The experiments were repeated 3-5 times. *P<0.05, **P<0.01;
To gain more insight into the mechanism whereby VX-809 alters Hsp protein levels, translation was inhibited by using cycloheximide (35) and the disappearance of the three Hsps was monitored. […] Hsp 90 was reduced by approximately 25%, and Hsp27 was unchanged.

Experiment [3] relates to Hsp27. Kind of experiment: Western blot of Hsp27 in kidney tissue lysates. The format is in vivo, mouse. To be noted: cyst induced pkd−/− mice, VX-809 30 mg/kg BW. On the procedure: FIG. 7A, FIG. 7B, FIG. 7C, FIG. 7D, FIG. 7E, and FIG. 7F show chaperone expression is altered in mice by VX-809. (FIG. 7A-FIG. 7B) Representative Western blot images of HSP27, 70, 90 and HSP40 in lysates of kidney tissue from no cyst induced (ND), cyst induced with Doxycycline (D) or cyst induced pkd−/− mice treated with VX-809 (D+VX-809) 30 mg/kg BW. (FIG. 7C, FIG. 7D, FIG. 7E, and FIG. 7F) Columns represent averages±standard errors of HSP27, 70, 90 and HSP40 expression. Data were analyzed by non-parametric t-test. n=4 for each treated and control groups. Black lines between lanes represent representative experiments from the same gel. *P<0.05; **P<0.01; To facilitate their growth in the kidney, cysts have developed an altered network of proteins that most likely serves to protect them from stress (34). Next, it was determined whether VX-809 would alter the levels of Hsps in pkd−/− mice and in PN cells. […] Hsp 27, 70 and 90 are all elevated in cystic kidneys compared to normal controls. […] There is no change in Hsp 40. […] Both sets of data are consistent with an alteration in the heat shock response to cyst growth.

In experiment [4] the test system is Hsp27. Kind of experiment: Western blot of Hsp27 in PN cells. The format is cell-based, mouse. The conditions noted are these: VX-809 10 μM 16 h. On the procedure:
as §1

In another experiment the target is CFTR (Mus musculus, UniProt P26361). Kind of experiment: Confocal microscopy localization of CFTR. Format: cell-based. Also noted: endogenous in cells. The conditions noted are these: VX-809 treated vs control cells; ER, Golgi and PM markers. The text has this:
FIG. 18A and FIG. 18B show images of confocal microscopy localization studies of CFTR and localization markers in control and treated cells (FIG. 18A) and graphs showing Pearson's correlation coefficient for CFTR and localization markers in control and VX-809 treated cells (FIG. 18B).
(§2) The localization of PC2 and CFTR in control cells was compared to the localization of PC2 and CFTR localization in VX-809 treated cells.

For another experiment, the system named is PC2. Kind of experiment: Confocal microscopy localization of PC2. The format is cell-based. The conditions noted are these: VX-809 treated vs control cells; ER, Golgi and PM markers.
Excerpt: FIG. 17A and FIG. 17B show images of confocal microscopy localization studies of PC2 and localization markers in control and treated cells (FIG. 17A) and graphs showing Pearson's correlation coefficient for PC2 and localization markers in control and VX-809 treated cells (FIG. 17B).
as §2

Sequence of CFTR (P26361 whole entry): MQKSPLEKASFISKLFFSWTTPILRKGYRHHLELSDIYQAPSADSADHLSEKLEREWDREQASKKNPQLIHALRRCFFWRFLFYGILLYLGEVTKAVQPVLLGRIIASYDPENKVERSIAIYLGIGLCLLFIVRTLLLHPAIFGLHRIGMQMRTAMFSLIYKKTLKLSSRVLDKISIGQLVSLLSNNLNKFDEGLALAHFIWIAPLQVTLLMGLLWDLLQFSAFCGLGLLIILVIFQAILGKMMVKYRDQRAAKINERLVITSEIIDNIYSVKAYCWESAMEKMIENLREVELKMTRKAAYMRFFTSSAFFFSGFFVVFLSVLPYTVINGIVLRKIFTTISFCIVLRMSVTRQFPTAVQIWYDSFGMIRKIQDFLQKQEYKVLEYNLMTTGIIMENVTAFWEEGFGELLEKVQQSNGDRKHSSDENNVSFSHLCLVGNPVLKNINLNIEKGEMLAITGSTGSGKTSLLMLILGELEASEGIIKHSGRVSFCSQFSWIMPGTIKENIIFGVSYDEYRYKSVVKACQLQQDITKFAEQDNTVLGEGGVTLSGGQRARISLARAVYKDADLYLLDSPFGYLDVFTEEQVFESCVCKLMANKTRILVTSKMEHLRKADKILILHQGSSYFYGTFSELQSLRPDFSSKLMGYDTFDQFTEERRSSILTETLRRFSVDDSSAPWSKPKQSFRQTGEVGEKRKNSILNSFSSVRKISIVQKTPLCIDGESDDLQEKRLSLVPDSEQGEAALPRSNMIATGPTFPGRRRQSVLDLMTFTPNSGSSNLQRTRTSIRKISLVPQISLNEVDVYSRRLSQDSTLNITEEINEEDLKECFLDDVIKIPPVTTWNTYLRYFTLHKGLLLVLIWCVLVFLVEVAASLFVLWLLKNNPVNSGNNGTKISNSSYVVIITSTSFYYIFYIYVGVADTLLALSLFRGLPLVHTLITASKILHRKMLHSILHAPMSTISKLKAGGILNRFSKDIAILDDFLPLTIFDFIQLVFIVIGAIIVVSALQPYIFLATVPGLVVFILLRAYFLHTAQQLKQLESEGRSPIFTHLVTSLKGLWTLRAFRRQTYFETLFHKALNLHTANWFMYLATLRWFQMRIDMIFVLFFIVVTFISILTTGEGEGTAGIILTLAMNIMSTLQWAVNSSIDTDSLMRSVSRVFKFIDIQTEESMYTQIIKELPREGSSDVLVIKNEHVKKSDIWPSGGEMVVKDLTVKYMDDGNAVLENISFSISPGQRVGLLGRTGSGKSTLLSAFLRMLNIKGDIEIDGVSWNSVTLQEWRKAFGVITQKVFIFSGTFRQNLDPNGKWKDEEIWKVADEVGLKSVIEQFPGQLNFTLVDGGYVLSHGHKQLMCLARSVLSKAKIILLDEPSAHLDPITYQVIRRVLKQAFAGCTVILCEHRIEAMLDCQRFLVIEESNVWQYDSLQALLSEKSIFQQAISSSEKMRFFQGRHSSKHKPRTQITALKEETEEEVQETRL

Take lumacaftor [VX-809]: in the experiment with Hsp70, the “Hsp70 expression in PN cells” value is recorded as “reduced expression”. Also, the cyst growth result in experiment [1] (10 μM, plus or minus forskolin, treated on Days 0, 2, 4, 6, 8, 10, 12, 14, pictures Day 16) was “reduce cyst growth equally well in the presence and absence of forskolin”. In addition, the “cyst size, drug treatment regime incl. established cysts” value in experiment [1] (every other day, or from Days 9-16 on established cysts, in the presence of forskolin) was “dramatically reducing cyst size”. In addition, the “Hsp27 level over the 8-h period” value in the experiment on Hsp27 [2] is recorded as “unchanged”. Also, the “Hsp27 expression in kidneys” value in the experiment with Hsp27 [3] is recorded as “significantly less expression”. Also, the “Hsp27 expression in PN cells” value with Hsp27 [4] is recorded as “reduced expression”. For the same substance, the “localization of CFTR” value at CFTR was “statistically significant move of CFTR from the ER to Basolateral and Apical Membrane”. Besides, the “localization of PC2” value in the experiment with PC2 is on record as “statistically significant move of PC2 from the ER to Golgi”.

Source of the values: US20200289482A1, “CYSTIC FIBROSIS TRANSMEMBRANE CONDUCTANCE REGULATOR MODULATORS FOR TREATING AUTOSOMAL DOMINANT POLYCYSTIC KIDNEY DISEASE” (The Johns Hopkins University, priority 2017, published 2020).
